Experimental data: patent US20130309238A1, “SIGNAL TRANSDUCTION PATHWAY MODULATION” (NEWCASTLE INNOVATION LIMITED, priority 2010, published 2013)

Assays:
HDM-allergic mice [1] = assay: AHR measurement in house dust mite (HDM)-induced allergic airways disease; type: in vivo, BALB/c mice; conditions: HDM-sensitized and challenged mice; treatment during allergen challenge
Experimental: Mice were sensitized and challenged by exposing them intranasally to house dust mite (HDM) (50 mcg daily at day 0, 1, and 2 followed by 5×5 mcg daily from day 14 to day 17 delivered in 50 μl of sterile saline). The single dose of HDM employed in initial studies was 50 mcg/50 μl of sterile saline. Non-sensitized mice received sterile saline only.
AHR was assessed invasively in separate groups of anesthetized mice by measurement of total lung resistance and dynamic compliance. Percentage increase over baseline (water) in response to nebulised methacholine was calculated.
(§1) Specifically, allergic mice were treated with a commercially available (Ambion) in-vitro validated small interfering (si)RNA directed against Midline-1 (SEQ ID NO:3) (MID1 siRNA) or a scrambled nonsense siRNA (control) following previously established protocols. BALB/c mice were anesthetised with isoflurane before being sensitised with the intranasal administration of either 50 μg House Dust Mite antigen (HDM) in 50 μl of sterile saline or 50 μl of sterile saline in control groups. This sensitisation was repeated at days 1 and 2 following initial sensitisation. On day 14 following initial sensitisation the mice were again anesthetised with isoflurane before receiving intranasal challenge with 5 μg of HDM in […] of sterile water. This challenge dosage was repeated daily from day 14 through 17. Mice received intranasal administration of maked Mid-1 siRNA or scramble control in 25 μl of saline under isoflurane anaesthesia on days 13, 15 and 17, through the period of HDM challenge. On day 18, 24 hrs after the final HDM challenge, the mice were sacrificed with an excess dose of sodium pentobarbitone administered intraperitoneally (200 μl total volume).

HDM-allergic mice [2] = assay: Airway inflammation, mucus-producing cells and BALF cells in HDM-induced allergic airways disease; type: in vivo, BALB/c mice
Experimental: as §1, with “Mice were sensitized and challenged by exposing them intranasally to house dust mite (HDM) (50 mcg daily at day 0, 1, and 2 followed by 5×5 mcg daily from day 14 to day 17 delivered in 50 μl of sterile saline). The single dose of HDM employed in initial studies was 50 mcg/50 μl of sterile saline. Non-sensitized mice received sterile saline only. Lung tissue was stained, cells identified by morphological criteria, and quantitated by counting ten high power fields (HPFs) in each slide. […] Specifically,” for “Specifically,”

[3] = tested on: peribronchial lymph node cells; assay: Cytokine release from in-vitro HDM-stimulated peribronchial lymph node cells; type: in vivo, BALB/c mice; conditions: HDM-sensitized and challenged mice
Experimental: Peribronchial lymph node cells were excised, filtered, and cultured in the presence or absence of 50 mcg/ml HDM (optimal concentration) for 6 days. IL-13, IL-5, and IFN-γ were determined by ELISA (BD Biosciences Pharmingen).

CCL20 = CCL20 expression/release in airway wall or lung homogenates of HDM-allergic mice; type: in vivo, BALB/c mice; conditions: HDM-sensitized and challenged mice
Experimental: Total RNA was isolated with mirVana m/miRNA Isolation kit (Ambion) from lower airway tissue that was separated by blunt dissection allowing effective separation of the airway wall from the parenchyma (Mattes, 2009). quantitative RT-PCR (qRT-PCR) was performed with SYBR® Green (Invitrogen) using an Eppendorf […] (threshold cycle) quantification was performed using Eppendorf Realplex analysis software 2.2. Mouse mRNA expression was normalised to HPRT, human mRNA to GAPDH. Fold change was calculated using delta delta CT values relative to control groups.

PP2A [4] = target: PP2A (Mus musculus, UniProt P63330); conditions: HDM-allergic mice, daily intranasal treatment
Experimental: PP2a activity was measured by R&D Systems PP2A DuoSet IC activity assay kit according to the manufacturer's instructions. This was performed on homogenized mouse lungs and harvested BEAS-2B cells.

PP2A [5] = target: T1, PP2A (Homo sapiens, UniProt P67775); assay: PP2A activity in HDM-stimulated human bronchial epithelial cells (BEAS-2B); type: cell-based; conditions: BEAS-2B + crude HDM extract, 24 hours; salbutamol 0.1, 1, 10 μM; mitoxantrone analogue 1, 5, 25 μg/ml; AAL(s) 0.5, 2 μM
T1 construct: endogenous in cells; host or cells: BEAS-2B
Experimental: • Activation of PP2A The inventors have examined the ability of known PP2A agonists to influence PP2A activity in human bronchial epithelial cells stimulated with crude house dust mite extract. Immortalised human bronchial epithelial cells (BEAS-2B) were seeded at 1×10^5 cells/well in 12-well tissue culture plates and allowed to reach 80% confluency. Cells were then treated with either salbutamol, a mitoxantrone analogue, or AAL(s), at a range of tolerable concentrations (0.1, 1 and 10 μM for salbutamol; 1, 5 and 25 μg/ml for the nitoxantrone analaogue; and 0.5 and 2 μM for AAL(s)). Simultaneously, cells were stimulated with crude House Dust Mite (HDM) extract and left for 24 hours. Cells were then collected, washed, lysed, and PP2A activity assayed (R&D Systems), measuring phosphatase activity when fed a synthetic substrate. PP2A activity was reduced upon HDM stimulation compared to the non-stimulated media only group (representing physiologically normal activity levels).

[6] = tested on: ovalbumin-challenged mice; conditions: OVA 3x a week for 3 months, AAL(S) daily
From the text: (§2) The inventors then determined the ability of AAL(S) to protect against airway fibrosis in two mouse models, a chronic ovalbumin model of allergic airways disease and an acute bleomycin-induced fibrosis model.
Mice received ovalbumin (OVA)+alumn IP at day 0 and 2 weeks. Mice then received OVA 3× a week for 3 months. AAL treated mice received AAL(S) daily throughout the 3 month challenge period.

bleomycin-treated mice = conditions: bleomycin intratracheally, sacrificed after 23 days; AAL(S) daily
From the text: as §2
In the bleomycin model, mice received bleomycin intratracheally and were sacrificed after 23 days. AAL(S) treated mice received AAL(S) daily post bleomycin administration.

[7] = tested on: sphingosine-1-phosphate receptors; conditions: Don et al., 2007; cited from earlier work
sphingosine kinase 2 = sphingosine kinase 2 (Homo sapiens, UniProt Q9NRA0); conditions: Don et al., 2007; cited from earlier work
[8] = in vivo; cited from earlier work
[9] = HDM-allergic and challenged mice

T1 sequence (P67775 whole entry): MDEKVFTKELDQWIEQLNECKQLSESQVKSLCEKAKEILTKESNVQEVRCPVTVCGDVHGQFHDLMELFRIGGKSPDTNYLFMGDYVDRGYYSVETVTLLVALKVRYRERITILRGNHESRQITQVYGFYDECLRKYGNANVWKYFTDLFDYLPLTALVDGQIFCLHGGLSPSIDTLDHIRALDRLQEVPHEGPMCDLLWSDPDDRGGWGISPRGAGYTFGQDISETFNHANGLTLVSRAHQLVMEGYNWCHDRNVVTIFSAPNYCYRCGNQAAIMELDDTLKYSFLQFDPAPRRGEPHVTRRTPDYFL
T1 sequence (P30153 whole entry partner): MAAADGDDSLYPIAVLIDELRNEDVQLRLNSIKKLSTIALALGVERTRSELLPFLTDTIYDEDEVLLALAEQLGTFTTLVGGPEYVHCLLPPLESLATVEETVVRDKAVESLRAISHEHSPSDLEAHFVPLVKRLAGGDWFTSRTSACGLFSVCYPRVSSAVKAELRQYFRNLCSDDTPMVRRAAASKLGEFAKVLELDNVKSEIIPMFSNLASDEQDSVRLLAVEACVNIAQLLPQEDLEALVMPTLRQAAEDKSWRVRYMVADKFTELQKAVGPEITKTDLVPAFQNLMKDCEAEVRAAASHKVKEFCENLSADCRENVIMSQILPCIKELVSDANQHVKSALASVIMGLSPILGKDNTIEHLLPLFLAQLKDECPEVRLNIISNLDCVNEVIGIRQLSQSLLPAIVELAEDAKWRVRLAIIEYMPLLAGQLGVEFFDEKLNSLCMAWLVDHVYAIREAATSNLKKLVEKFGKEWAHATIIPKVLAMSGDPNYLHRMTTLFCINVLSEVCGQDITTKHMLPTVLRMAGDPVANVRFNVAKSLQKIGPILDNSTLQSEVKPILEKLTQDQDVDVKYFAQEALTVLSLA
Chain of sphingosine kinase 2 (Q9NRA0 whole entry, species assumed): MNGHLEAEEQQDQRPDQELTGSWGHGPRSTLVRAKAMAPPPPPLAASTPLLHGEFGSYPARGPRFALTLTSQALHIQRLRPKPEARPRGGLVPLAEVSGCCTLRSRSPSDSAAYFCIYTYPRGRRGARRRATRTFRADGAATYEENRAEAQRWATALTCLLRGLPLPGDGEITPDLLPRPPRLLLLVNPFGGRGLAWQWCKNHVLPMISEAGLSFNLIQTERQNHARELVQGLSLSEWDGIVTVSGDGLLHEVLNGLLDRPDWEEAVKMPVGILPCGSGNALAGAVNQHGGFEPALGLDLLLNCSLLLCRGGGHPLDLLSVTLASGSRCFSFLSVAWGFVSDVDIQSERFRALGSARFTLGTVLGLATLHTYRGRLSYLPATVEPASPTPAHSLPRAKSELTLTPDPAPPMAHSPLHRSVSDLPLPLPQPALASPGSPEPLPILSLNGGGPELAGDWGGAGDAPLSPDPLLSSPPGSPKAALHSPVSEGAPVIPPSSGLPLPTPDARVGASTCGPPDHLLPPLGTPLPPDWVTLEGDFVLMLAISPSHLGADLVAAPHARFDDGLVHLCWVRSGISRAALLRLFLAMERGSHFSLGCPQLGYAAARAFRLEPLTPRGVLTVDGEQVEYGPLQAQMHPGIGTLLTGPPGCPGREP
Chain of PP2A (Mus musculus, UniProt P63330) (P63330 whole entry): as the sequence (P67775 whole entry) above, with V5L counted along it
Chain of PP2A (Mus musculus, UniProt P63330) (Q76MZ3 whole entry partner): as the sequence (P30153 whole entry partner) above, with S324T counted along it

Structure (SMILES)	airways hyperresponsiveness (total lung resistance in response to inhaled methacholine) (HDM-allergic mice [1])	airways inflammation (HDM-allergic mice [2]; HDM-sensitized and challenged mice, treatment during allergen challenge)	Th2 cytokine release in allergen-stimulated peribronchial lymphnode cultures [3]	CCL20 release (levels in lung homogenates) (CCL20)	PP2A activity in the lungs (PP2A [4])	PP2A activity (phosphatase activity on synthetic substrate) (PP2A [5])	lung function (forced vital capacity and forced expiratory volume in 100 milliseconds) [6]	airways fibrosis (collagen deposition surrounding the airways) ([6]; wildtype BALB/c mice)	collagen deposition in airways (bleomycin-treated mice)	binding to sphingosine-1-phosphate receptors [7]	phosphorylation by sphingosine kinase 2 (sphingosine kinase 2)	lymphopenia [8]	eosinophils (BALF) (HDM-allergic mice [2]; [9])	lymphocytes (BALF) (HDM-allergic mice [2]; [9])	neutrophils (BALF) (HDM-allergic mice [2]; [9])
CCCCCCCOc1ccc(CCC(C)(N)CO)cc1 [AAL(S), 2-amino-4-(4-heptyloyphenol)-2-methylbutanol]	precluded the development	precluded the development	reduced	reduced	reactivates PP2A in the lungs	fully restored	improved	protected	protected	does not bind	cannot be phosphorylated	does not cause lymphopenia			
CCCCCCCCc1ccc(CCC(N)(CO)CO)cc1 [FTY720]	reduced			reduced									reduced	reduced	reduced
CCCCCCCCc1ccc(CCC(N)(CO)COP(=O)(O)O)cc1 (stereo not drawn) [pFTY720]	partial reduction												partial reduction		partial reduction
CC(C)(C)NCC(O)c1ccc(O)c(CO)c1 (stereo not drawn) [salbutamol]						restore PP2A activity to a significant level									
